Test results as given in US12391697B2, “Condensed bi-heterocycles as inhibiting agents for Bruton's tyrosine kinase” (BIOGEN MA INC., priority 2019, dated 2025).
Counter-ions that a name gives are not always drawn.

molecular target: BTK (Homo sapiens (Human), UniProt Q06187); experiment: In Vitro BTK Kinase Assay: Btk-PolyGAT-LS Assay; assay type: biochemical; conditions: active BTK enzyme 0.25 nM, ATP 10 μM, polyGAT 100 nM, 30 minutes
Procedure: In Vitro BTK Kinase Assay: Btk-PolyGAT-LS Assay
The purpose of the BTK in vitro assay is to determine compound potency against BTK through the measurement of IC50. […] The BTK kinase reaction was done in a black 96 well plate (costar 3694). For a typical assay, a […] aliquot of a ATP/peptide master mix (final concentration; ATP 10 μM, polyGAT 100 nM) in kinase buffer (10 mM Tris-HCl pH 7.5, 10 mM MgCl2, 200 μM […], 5 mM DTT, 0.01% Triton X-100, and 0.2 mg/ml casein) is added to each well. Next, […] of a 4-fold, 40× compound titration in 100% DMSO solvent is added, followed by adding 15 uL of BTK enzyme mix in 1× kinase buffer (with a final concentration of 0.25 nM). The assay is incubated for 30 minutes before being stopped with […] of a 50 mM EDTA solution. Aliquots (5 uL) of the kinase reaction are transferred to a low volume white 384 well plate (Corning 3674), and […] of a 2× detection buffer (Invitrogen PV3574, with 4 nM Tb-PY20 antibody, Invitrogen PV3552) is added. The plate is covered and incubated for 45 minutes at room temperature. Time resolved fluorescence (TRF) on Molecular Devices M5 (332 nm excitation; 488 nm emission; 518 nm fluorescein emission) is measured.

Chain of BTK (Q06187 whole entry): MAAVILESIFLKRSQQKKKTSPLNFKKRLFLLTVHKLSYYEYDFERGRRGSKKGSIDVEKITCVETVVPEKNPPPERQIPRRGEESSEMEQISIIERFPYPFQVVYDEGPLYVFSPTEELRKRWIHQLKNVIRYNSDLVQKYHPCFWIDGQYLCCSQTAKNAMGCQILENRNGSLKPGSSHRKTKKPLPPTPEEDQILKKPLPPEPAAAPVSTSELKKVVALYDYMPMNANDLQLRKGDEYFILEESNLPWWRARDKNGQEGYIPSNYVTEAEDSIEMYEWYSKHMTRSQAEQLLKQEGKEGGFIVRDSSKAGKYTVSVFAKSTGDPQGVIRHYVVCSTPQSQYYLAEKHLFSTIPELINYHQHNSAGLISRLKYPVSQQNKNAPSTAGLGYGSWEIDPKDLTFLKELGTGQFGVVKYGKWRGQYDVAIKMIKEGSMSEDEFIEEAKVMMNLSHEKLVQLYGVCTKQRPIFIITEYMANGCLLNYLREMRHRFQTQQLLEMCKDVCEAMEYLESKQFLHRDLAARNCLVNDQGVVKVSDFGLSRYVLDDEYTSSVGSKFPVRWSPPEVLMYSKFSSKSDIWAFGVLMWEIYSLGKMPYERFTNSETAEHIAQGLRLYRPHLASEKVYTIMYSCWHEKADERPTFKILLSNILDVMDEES

Row | Structure (SMILES) | IC50
1 | Cc1cc(-c2ncnn3cccc23)ccc1CNC(=O)c1nnc(C(C)(C)C)o1 [Example 185] | > 10 nM
2 | Cn1cc(-c2cc3c(-c4ccc(CNC(=O)c5noc(C(C)(C)C)n5)c(C(F)F)c4)ncnn3c2)cn1 [Example 219] | ≤ 1 nM
3 | Cc1c(CNC(=O)c2ccn(C(C)(C)C)n2)ccc(-c2ncnn3cc(N4CCOCC4)cc23)c1F [Example 89] | 1 to 10 nM
4 | COc1cc(-c2ncnn3cc(-c4cnn(C)c4)cc23)ccc1CNC(=O)c1nnc(C(C)(C)C)o1 [Example 197] | 1 to 10 nM
5 | Cc1cc(-c2ncnn3ccnc23)ccc1CNC(=O)c1noc(C(C)(C)C)n1 [Example 52] | 1 to 10 nM
6 | Cc1cc(-c2ncnn3cc(N4CCO[C@H](C)C4)cc23)ccc1CNC(=O)c1coc(C(C)(C)C)n1 (single isomer, unassigned) [Example 143] | ≤ 1 nM
7 | Cc1cc(-c2ncnn3cc(-c4ccc(F)cc4)cc23)ccc1CNC(=O)c1noc(C(C)(C)C)n1 [Example 224] | ≤ 1 nM
8 | Cc1cc(-c2ncnn3ccc(F)c23)ccc1CNC(=O)c1noc(C(C)(C)C)n1 [Example 19, 5-(tert-butyl)-N-(4-(5-fluoropyrrolo[2,1-f][1,2,4]triazin-4-yl)-2-methylbenzyl)-1,2,4-oxadiazole-3-carboxamide trifluoroacetate] | 1 to 10 nM
9 | Cc1cc(-c2ncnn3cc(CC4CCOCC4)cc23)ccc1CNC(=O)c1noc(C(C)(C)C)n1 [Example 94] | > 10 nM
10 | Cc1c(CNC(=O)c2nnc(C(C)(C)C)o2)ccc(-c2ncnn3cc(N4CCOCC4)cc23)c1F [Example 81] | 1 to 10 nM
11 | Cc1cc(-c2ncnn3cc(-c4cnsc4)cc23)ccc1CNC(=O)c1nc(C(C)(C)C)no1 [Example 173] | ≤ 1 nM
12 | Cc1cc(-c2ncnn3cc(Br)cc23)ccc1CNC(=O)c1noc(C(C)(C)C)n1 [Example 51] | 1 to 10 nM
13 | Cc1cc(-c2ncnn3cc(N4CCO[C@@H](C)C4)cc23)ccc1CNC(=O)c1coc(C(C)(C)C)n1 (single isomer, unassigned) [Example 144] | ≤ 1 nM
14 | Cn1cc(-c2cc3c(-c4ccc(CNC(=O)c5nc(C(C)(C)C)no5)c(C(F)F)c4F)ncnn3c2)cn1 [Example 194] | ≤ 1 nM
15 | Cc1cc(-c2ncnn3cnc(C)c23)ccc1CNC(=O)c1noc(C(C)(C)C)n1 [Example 48] | 1 to 10 nM
16 | CC(C)(C)n1nnc(C(=O)NCc2cc(F)c(-c3ncnn4cccc34)cc2Cl)n1 [Example 136] | > 10 nM
17 | CC(C)(C)c1noc(C(=O)NCc2ccc(-c3ncnn4cc(N5CCOCC5)cc34)cc2Cl)n1 [Example 159] | ≤ 1 nM
18 | Cc1cc2c(-c3ccc(CNC(=O)c4noc(C(C)(C)C)n4)c(C)c3)ncnn2c1 [Example 55] | ≤ 1 nM
19 | CC(C)(C)c1noc(C(=O)NCc2cc(F)c(-c3ncnn4cccc34)cc2Cl)n1 [Example 133] | 1 to 10 nM
20 | COC1CN(C(=O)c2cc3c(-c4ccc(CNC(=O)c5noc(C(C)(C)C)n5)c(C)c4)ncnn3c2)C1 [Example 217] | ≤ 1 nM
21 | Cc1cc(-c2ncnn3cc(-c4cnn(C)c4)cc23)ccc1CNC(=O)c1nnc(C(C)(C)C)o1 [Example 165] | ≤ 1 nM
22 | Cc1cc(-c2ncnn3cc(-c4cnco4)cc23)ccc1CNC(=O)c1noc(C(C)(C)C)n1 [Example 110] | ≤ 1 nM
23 | CC(C)(C)n1cc(C(=O)NCc2ccc(-c3ncnn4cc(-c5cnn(CC(F)F)c5)cc34)cc2C(F)F)cn1 [Example 209] | ≤ 1 nM
24 | Cc1cc(-c2ncnn3cc(-c4cnn(C)c4C)cc23)ccc1CNC(=O)c1cnc(C(C)(C)C)o1 [Example 131] | 1 to 10 nM
25 | Cc1cc(-c2ncnn3cccc23)ccc1CNC(=O)c1nnn(C(C)(C)C)n1 [Example 214] | 1 to 10 nM
26 | Cc1cc(-c2ncnn3cc(-c4cn(C)nc4C)cc23)ccc1CNC(=O)c1noc(C(C)(C)C)n1 [Example 108] | ≤ 1 nM
27 | Cc1cc(-c2ncnn3cc(N4CCN(C)C(C)C4)cc23)ccc1CNC(=O)c1noc(C(C)(C)C)n1 (stereo not shown) [Example 96] | ≤ 1 nM
28 | Cn1cc(-c2cc3c(-c4ccc(CNC(=O)c5coc(C(C)(C)C)n5)c(C(F)F)c4)ncnn3c2)cn1 [Example 211] | ≤ 1 nM
